Measured values published in BindingDB's records for doi:10.1021/jm030438k (Harvard Medical School, 2004).
pIC50: −log10 of the molar value.

Columns and labels:
[1] = molecular target: Dihydrofolate reductase (Homo sapiens) (UniProt P00374); test: Inhibitory concentration against dihydrofolate reductace enzyme of humans
Dihydrofolate reductase = molecular target: T1, Dihydrofolate reductase (Homo sapiens, UniProt P00374); test: Inhibitory concentration against dihydrofolate reductase of rat liver
T1 sequence (P00374 whole entry): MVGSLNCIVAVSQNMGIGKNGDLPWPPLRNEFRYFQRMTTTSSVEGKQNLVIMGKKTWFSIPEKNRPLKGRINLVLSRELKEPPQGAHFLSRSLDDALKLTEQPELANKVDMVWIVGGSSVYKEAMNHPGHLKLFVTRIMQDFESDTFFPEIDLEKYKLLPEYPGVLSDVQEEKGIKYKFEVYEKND

pIC50 [1]	pIC50 (Dihydrofolate reductase)	SMILES
8.55	–	Cc1ccc(Cl)cc1Cc1cnc2nc(N)nc(N)c2c1C [6-(5-Chloro-2-methyl-benzyl)-5-methyl-pyrido[2,3-d]pyrimidine-2,4-diamine]
–	8.82	COc1cc(Cc2cnc3nc(N)nc(N)c3c2C)cc(OC)c1 [6-(3,5-Dimethoxy-benzyl)-5-methyl-pyrido[2,3-d]pyrimidine-2,4-diamine]
